Eleven compounds from patent EP0005422A2, “Derivatives of omega-dialkylalkanoic acids, processes for their preparation and their therapeutical use” (SANOFI S.A., priority 1978, dated 1979) can be followed below.

≈ marks a conversion by molar mass, not a printed value. Where two headings read alike, the source gives them in different places.

The test system of one series is Crise pentétrazolique. Description: Pentetrazol seizure test (Crise pentétrazolique). The class given is in vivo, souris. To be noted: mice, 15 minutes after administration of pentetrazol; for ED50: Mus musculus, po, 0.25 h, read-out: DE50 (the source's name). On the procedure:
Ce test, pratiqué sur souris par voie orale, est identique à celui décrit dans le brevet français N° 2.276.036.
Les DE50 obtenues 15 minutes après l'administration du pentécra- zol sont reprises ci-dessous comparativement aux résultats trouvés pour les sels de sodium correspondants : [drawing 12]

The nature of series [1]: Acute toxicity (toxicité aiguë). The class given is in vivo. The settings on record: mouse, in vivo, po, 1000 mg/kg, mice, 1000 mg/kg oral; read-out: mortalité. The method, then:
(§1) Des tests de toxicité aiguë pratiqués sur souris ont montré qu'à la dose de 1000 mg/kg, par voie orale, la mortalité provoquée par le n-propyl-3 hexanoate de magnésium et le n-propyl-3 hexanamide est respectivement de 40% et 0%.
(§2) A titre de comparaison, le n-propyl-3 hexanoate de sodium à la dose de 1000 mg/kg par voie orale provoque déjà 80% de mortalité.

Series [2] concerns Crise à l'acide β-mercaptopropionique. Description: β-mercaptopropionic acid seizure test (Crise à l'acide β-mercaptopropionique). The class given is in vivo, souris. To be noted: for ED50: Mus musculus, po. The method, then:
L'acide p-mercaptopropionique est un inhibiteur de la glutamate décarboxylase (G.A.D.), enzyme qui catalyse la transformation du glutamate en acide y-aminobutyrique (GABA). Son action se traduit donc par un abaissement du taux de GABA et la survenue de crises généralisées tonico-cloniques 3 à 4 minutes après son administration.
L'acide β-mercaptopropionique a été administré à des lots de 10 souris mâles, par voie intrapéritonéale, à la dose de 70 mg/kg, 30 minutes après l'administration orale d'une dose du composé à étudier. On note le pourcentage des animaux protégés contre la crise tonique 15 minutes après l'administration de l'acide β-mercaptopropionique.

In another series the test system is Anoxie par confinement. The experiment in a line: Anoxia by confinement (Anoxie par confinement). The class given is in vivo, souris. To be noted: for % d'augmentation du temps de survie: male mice, 75 mg/kg intraperitoneal, versus controls. On the procedure: Des lots de 15 souris mâles sont traités au moyen d'une dose de composé à étudier puis chaque animal est placé dans une enceinte hermétiquement close de 200 cm^3. L'animal est considéré comme mort au moment de l'arrêt respiratoire.
On détermine alors le % d'augmentation du temps de survie par rapport à des témoins.
On trouvera ci-dessous des résultats obtenus avec des composés de l'invention à la dose de 75 mg/kg par voie intrapéritonéale : [drawing 14]

Series [3] can be described thus: Solubility and pH of aqueous solution. The class given is physicochemical. To be noted: for solubility: water.
For a further series, the system named is souris. Description: Acute toxicity (toxicité aiguë). It counts as in vivo. To be noted: mice, 1000 mg/kg oral. The method, then:
as §1, §2

Series [4] concerns activité anticonvulsivante. The experiment in a line: Pharmacological studies of anticonvulsant activity (method not specified). The class given is in vivo. The settings on record: at identical doses, compared with di-n-propylacétate de sodium.
The mark [5] stands for this setting: male mice, compound oral 30 minutes before β-mercaptopropionic acid 70 mg/kg i.p., protection against tonic seizure 15 minutes after, read-out: DE50 (the source's name).
Setting [6] is: male mice, compound oral 30 minutes before β-mercaptopropionic acid 70 mg/kg i.p., protection against tonic seizure 15 minutes after.

Turning to `CCCC(CCC)CC(N)=O` [Y=NH2, n=0, n-propyl-3 hexanamide], the ED50 in the series with Crise pentétrazolique came to 65 mg/kg; in series [2] (setting [5]), 106 mg/kg. Besides, the mortality in series [1] was found to be 0%.

In the case of `CCCC(CCC)CCC(N)=O` [Y=NH2, n=1, n-propyl-4 heptanamide], the ED50 with Crise pentétrazolique worked out at 104 mg/kg. In addition, the “% d'augmentation du temps de survie” value with Anoxie par confinement is on record as 15%.

Turning to `CCCC(CCC)CCCC(N)=O` [Y=NH2, n=2, n-propyl-5 octanamide], the ED50 in the series with Crise pentétrazolique is 121 mg/kg; in series [2] (setting [5]) it was 129 mg/kg. Moreover, in the series with Anoxie par confinement, the “% d'augmentation du temps de survie” value is listed as 64%.

Consider `CCCC(CCC)CCC(=O)O` [Y=OCa1/2, n=1, n-propyl-4 heptanoate de calcium], for which, in the series on Anoxie par confinement, the “% d'augmentation du temps de survie” value is listed as 27%. Also, the solubility in series [3] (dissolves very slowly, read-out: se dissout dans l'eau) amounted to 1000 mg/mL. The compound further came in with a DE50 in series [2] (setting [6]) of 101 mg/kg.

Compound `CCCC(CCC)CC(=O)O` [Y=OMg1/2, n=0, n-propyl-3 hexanoate de magnésium] registered a mortalité in the series on souris of 40%. Moreover, in the series on Anoxie par confinement, the “% d'augmentation du temps de survie” value was 36%. Besides, in series [3] (2% aqueous solution, slightly opalescent), the pH is on record as 9,4. Moreover, the DE50 in series [2] (setting [6]) is 145 mg/kg.

Take `CCCC(CCC)CCCC(=O)O` [Y=OMg1/2, n=2, n-Propyl-5 octanoate de magnésium]: the DE50 in the series with Crise pentétrazolique (oral route, 15 min) is 152 mg/kg; in series [2] (setting [6]) it was 124 mg/kg. Besides, the “% d'augmentation du temps de survie” value in the series with Anoxie par confinement is listed as 56%. Besides, the “solubilité dans les solvants organiques” value in series [3] (organic solvents) is reported as “Bonne solubilité”. The solubility in series [3] (read-out: Solubilité dans l'eau) came out at 1 mg/mL (≈ 5.37 mM).

For `CCCC(CCC)CC(=O)O` [Y=ONa, n=0, n-propyl-3 hexanoate de sodium, reference compound], the ED50 in the series on Crise pentétrazolique is 95 mg/kg; in series [2] (setting [5]) it was 168 mg/kg. Further, the mortalité in the series with souris came out at 80%.

Consider `CCCC(CCC)CCC(=O)O` [Y=ONa, n=1, reference compound], for which the ED50 in the series with Crise pentétrazolique is 119 mg/kg; in series [2] (setting [5]) it was 124 mg/kg.

For `CCCC(CCC)CCCC(=O)O` [Y=ONa, n=2, reference compound], the ED50 in the series on Crise pentétrazolique came to 172 mg/kg.

As for `CCCC(CCC)C(=O)O` [di-n-propylacétate de sodium, reference compound], in the series on Anoxie par confinement (200 mg/kg intraperitoneal, comparative test), the “augmentation du temps de survie” value came to 32%. In series [2] (read-out: DE50), the ED50 is 175 mg/kg.

As to `CCCC(CCC)C(=O)O` [sel de calcium], in series [4], the potentialités anticonvulsivantes entry is “sensiblement équivalentes à celles du di-n-propylacétate de sodium et même légèrement inférieures”.
